Measured values reported in patent publication US20080015194A1, “METHODS AND COMPOSITIONS OF TARGETED DRUG DEVELOPMENT” (priority 2006, published 2008).
Like-named read-outs stand apart in the source and are kept apart here.

Key:
EGFR = target: T1, EGFR (Rattus norvegicus, UniProt G3V6K6); experiment: Inhibition of [125I]EGF binding to EGFR, radioligand filtration assay (NovaScreen); details: rat liver membranes
T1 construct: Receptor source was rat liver membranes; tissue NovaScreen BioSciences; host or cells: rat liver membranes
T1 sequence (G3V6K6 25-1209): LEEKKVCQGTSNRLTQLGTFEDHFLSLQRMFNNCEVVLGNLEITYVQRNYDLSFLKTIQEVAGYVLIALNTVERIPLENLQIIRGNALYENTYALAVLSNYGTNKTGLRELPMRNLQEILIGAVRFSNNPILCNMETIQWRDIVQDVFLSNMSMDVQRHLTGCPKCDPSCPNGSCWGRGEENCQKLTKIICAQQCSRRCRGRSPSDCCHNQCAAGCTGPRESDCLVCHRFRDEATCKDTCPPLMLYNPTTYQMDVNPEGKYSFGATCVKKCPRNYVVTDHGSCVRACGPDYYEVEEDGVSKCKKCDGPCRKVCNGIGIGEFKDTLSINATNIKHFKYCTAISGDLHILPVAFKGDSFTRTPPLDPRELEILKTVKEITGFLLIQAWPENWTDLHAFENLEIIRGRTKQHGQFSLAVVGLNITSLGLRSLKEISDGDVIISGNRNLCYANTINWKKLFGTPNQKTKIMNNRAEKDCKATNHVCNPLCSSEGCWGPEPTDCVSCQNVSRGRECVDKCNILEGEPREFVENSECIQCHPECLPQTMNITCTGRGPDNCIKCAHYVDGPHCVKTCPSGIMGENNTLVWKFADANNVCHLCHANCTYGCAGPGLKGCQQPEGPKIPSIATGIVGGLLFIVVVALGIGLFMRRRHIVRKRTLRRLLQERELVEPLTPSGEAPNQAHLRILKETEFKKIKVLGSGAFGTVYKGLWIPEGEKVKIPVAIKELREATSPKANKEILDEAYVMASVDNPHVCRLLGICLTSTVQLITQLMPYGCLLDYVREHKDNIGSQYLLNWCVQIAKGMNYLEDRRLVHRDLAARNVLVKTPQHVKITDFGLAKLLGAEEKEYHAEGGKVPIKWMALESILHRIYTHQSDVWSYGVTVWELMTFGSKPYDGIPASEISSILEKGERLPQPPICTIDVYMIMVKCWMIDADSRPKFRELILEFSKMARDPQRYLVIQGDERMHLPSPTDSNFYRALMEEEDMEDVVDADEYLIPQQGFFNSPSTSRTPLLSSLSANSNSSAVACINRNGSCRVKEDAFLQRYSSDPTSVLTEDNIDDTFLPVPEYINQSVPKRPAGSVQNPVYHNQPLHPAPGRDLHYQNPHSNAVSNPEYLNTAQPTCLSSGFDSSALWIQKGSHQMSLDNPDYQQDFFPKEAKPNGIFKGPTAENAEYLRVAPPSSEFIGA
Protocol: Identified compounds, representing various pharmacaphore models, were tested for ability to inhibit EGFR at 25 μM.
AD4-compounds were identified using pharmacophore models (see Example 4) and then were docked with the binding site of EGFR (SEQ ID NO: 1) that is recognized by defined CDRs of cetuximab. The inhibition of epidermal growth factor binding by AD4-compounds was then determined (NovaScreen BioSciences, Hanover, Md.). Inhibition of EGF binding was determined at 25 μM concentration.
Receptor source was rat liver membranes. The radioligand was [^125I]EGF ([…]) at a final ligand concentration of 0.36 nM. A non-specific determinant was used as EGF—[100 nM]. The reference compound and positive control was EGF. Reactions were carried out in 10 mM HEPES (pH 7.4) containing 0.1% BSA at 25 °C for 60 minutes. The reaction was terminated by rapid vacuum filtration onto glass fiber filters. Radioactivity trapped onto the filters was determined and compared to control values to ascertain any interactions of test compounds with the EGF binding site. The EGF inhibitor assays were modified from, for example, Mukku (1984) J. Biol. Chem. 259, 6543-6546; Duh et al. (1990) World J. Surgery 14, 410-418; Lokeshwar et al. (1989) J. Biol. Chem. 264(32), 19318-19326.

[1] = target: EGF receptor of rat liver membranes (rat); experiment: radioligand binding of [125I]EGF to rat liver membranes, filtration (NovaScreen)
[2] = 25 μM compound, [125I]EGF 0.36 nM, read-out: inhibition of binding of EGF to EGFR
[3] = inhibition of [125I]EGF binding at 25 μM, read-out: EGFR INHIBITION
[4] = 25 μM compound, [125I]EGF 0.36 nM

| Molecule | inhibition at 25 µM (EGFR; [3]) | other results |
| --- | --- | --- |
| CC1=C(C(=O)Nc2cccc(C)c2)C(c2ccc(O)cc2)NC(=O)N1 (stereo not shown) [AD4-1010, 4-(4-hydroxyphenyl)-6-methyl-N-(3-methylphenyl)-2-oxo-1,2,3,4-tetrahydro-5pyrimidinecarboxamide] | 39.4% | inhibition at 25 µM (EGFR; [2]): 39.4% |
| CCOc1ccc(/C(C)=N/N=C2\NC(=O)C(CC(=O)O)S2)cc1 (stereo not shown) [AD4-1016] | 37.8% | – |
| O=C(N/N=C/c1cc(Cl)ccc1O)c1ccc(O)cc1 [AD4-1017] | 35% | – |
| Oc1ccc(/C=N/N=C/c2ccc(O)cc2O)c(O)c1 [AD4-1018] | 36.2% | – |
| O=C(O)Cn1nnc(-c2ccc(OCc3ccccc3)cc2)n1 [AD4-1020, {5-[4-(benzyloxy)phenyl]-2H-tetrazol-2-yl}acetic acid] | 47.8% | inhibition of binding of EGF to EGFR (EGFR; [4]): 48%; inhibition at 25 µM (EGFR; [2]): 47.8% |
| CC(Oc1ccc(C(=O)NCCc2ccccc2)cc1)C(=O)O (stereo not shown) [AD4-1021] | 43.4% | inhibition at 25 µM (EGFR; [2]): 43% |
| Cc1cc(C)c(OCC(=O)Nc2cc(O)ccc2C(=O)O)cc1C [AD4-1022] | 38.6% | inhibition at 25 µM (EGFR; [2]): 39% |
| O=C(O)C[C@H](NCc1cccnc1)C(=O)Nc1ccc(Cl)cc1 [AD4-1025, N^1-(4-chlorophenyl)-N^2-(3-pyridinylmethyl)-alpha-asparagine] | 75.7% | inhibition of binding of EGF to EGFR (EGFR; [4]): 76%; inhibition at 25 µM (EGFR; [2]): 75.7% |
| O=C(O)CCc1ccc(-c2ccc(Cl)cc2)n1CCC(=O)O [AD4-1027] | 38.6% | inhibition at 25 µM (EGFR; [2]): 39% |
| COc1cccc(OCC(=O)Nc2ccccc2C(=O)O)c1 [AD4-1030] | 37.7% | inhibition at 25 µM (EGFR; [2]): 38% |
| CN(C1=NC(=O)C(CC(=O)O)S1)c1ccc(O)cc1 (stereo not shown) [AD4-1038, {2-[(4-Hydroxy-phenyl)-methyl-amino]-4-oxo-4,5-dihydro-thiazol-5-yl}-acetic acid] | 70.9% | inhibition at 25 µM (EGFR; [2]): 70.7% |
| O=C(CC(NCC1CCCO1)C(=O)O)Nc1cccc(Cl)c1 (stereo not shown) [AD4-1039] | 31.7% | inhibition at 25 µM (EGFR; [2]): 32% |
| CCCC(NC(=O)CCc1c(C)c2ccc(O)cc2oc1=O)C(=O)O (stereo not shown) [AD4-1047] | 32.7% | – |
| COc1cc(/C=N/NC(=O)c2ccc(O)cc2O)ccc1O [AD4-1057] | 30.1% | – |
| Cn1c(=O)c2c(nc(SCCCO)n2Cc2ccccc2)n(C)c1=O [AD4-1060] | 30.2% | – |
| NC(=O)C1CCN(C2CC(=O)N(c3ccc(C(=O)O)cc3)C2=O)CC1 (stereo not shown) [AD4-1108] | 33.1% | – |
| O=C(O)CCCN1C(=O)/C(=C/c2cccc(O)c2)SC1=S [AD4-1109] | 36.5% | – |
| CCOc1cc(C=C2C(=O)NC(=O)NC2=O)ccc1CC(=O)O [AD4-1121] | 35% | – |
| O=C(NC(=S)Nc1ccc(O)c(C(=O)O)c1)c1ccccc1 [AD4-1123] | 34.1% | – |
| O=C1Nc2ccccc2C1(O)C/C(=N/O)c1ccc2c(c1)OCCO2 (stereo not shown) [AD4-1124] | 33.1% | – |
| Cc1ccc(OCCn2c(SCCO)nc3c(N)ncnc32)cc1 [AD4-1128] | 38% | – |

| Molecule | inhibition at 25 µM (EGFR; [3]) | other results |
| --- | --- | --- |
| Cc1ccc(OCC(=O)Nc2ccc(O)cc2C(=O)O)c(C)c1 [AD4-1132, 2-{[(2,4-dimethylphenoxy)acetyl]amino}-5-hydroxybenzoic acid] | 59.6% | inhibition at 25 µM (EGFR; [2]): 59.6% |
| Oc1ccc(-c2csc(NCc3ccco3)n2)c(O)c1 [AD4-1133] | 37.3% | – |
| Cc1ccc(C(=O)Nc2ccc(C(=O)NCCCC(=O)O)cc2)o1 [AD4-1139] | 39% | – |
| O=C(CC1SC(Nc2ccc(O)cc2)=NC1=O)Nc1ccc(Br)cc1 (stereo not shown) [AD4-1140] | 36.5% | – |
| O=C(O)c1ccccc1SC1CC(=O)N(c2ccc(O)cc2)C1=O (stereo not shown) [AD4-1141] | 46.7% | – |
| COC(=O)c1cc(NC(=O)CSc2nc(C)cc(=O)[nH]2)cc(C(=O)OC)c1 [AD4-1147] | 43.4% | – |
| NC(=O)CCC(Nc1ncnc2ccccc12)C(=O)O (stereo not shown) [AD4-1148] | 43.2% | – |
| O=C(O)CC(NCc1ccco1)C(=O)Nc1ccc2ccccc2c1 (stereo not shown) [AD4-1149] | 33.6% | – |
| O=C(O)COc1ccc(C(=O)NCc2ccccc2)cc1 [AD4-1150] | 43.1% | – |
| CN(Cc1ccccc1)S(=O)(=O)c1ccc(O)c(C(=O)O)c1 [AD4-1153] | 34% | – |
| Cc1cccc(NC(=O)C(CC(=O)O)NCc2ccccc2)c1 (stereo not shown) [AD4-1155] | 30.1% | – |
| O=C(O)Cn1nnc(-c2ccc(OCc3cccc(C(F)(F)F)c3)cc2)n1 [AD4-1164] | 33.3% | – |
| Cc1ccc(Cl)cc1NC(=O)CC(C(=O)O)N1CCNCC1 (stereo not shown) [AD4-1165] | 47.2% | – |
| Cc1cccc(NC(=O)CC(NCCN2CCOCC2)C(=O)O)c1 (stereo not shown) [AD4-1166] | 31.2% | – |
| CCN(CC)c1ccc(NC(=O)C(CC(=O)O)NCc2ccccc2)cc1 (stereo not shown) [AD4-1167] | 30.6% | – |
| O=C(O)COc1ccc(-c2nnn(CC(=O)O)n2)cc1 [AD4-1169] | 31.4% | – |
| O=C(O)CC(NCc1ccccc1)C(=O)Nc1ccc(Cl)cc1 (stereo not shown) [AD4-1171] | 47.2% | – |
| O=C(O)Cn1nnc(-c2ccc(OCc3c(F)cccc3Cl)cc2)n1 [AD4-1175] | 35.1% | – |
| CCNc1nc(N)nc(Oc2ccc(OCc3ccccc3)nn2)n1 [AD4-1176] | 34% | – |
| O=C(CSc1ccccc1)Nc1ccc(O)c(C(=O)O)c1 [AD4-1178] | 34.6% | – |
| [125I]EGF (epidermal growth factor radioligand) | – | Bmax (receptor number) (fmol/mg tissue (wet weight)) [1]: 43; Kd [1]: 1.04 nM |
